The subject of this assay is CEM cells HIV-1 protection, formazan growth assay. The assay is described as follows: NCI AIDS Antiviral Assay. Particulars: for IC50: measured here: growth of uninfected CEM cells. The method, boiled down:
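Human CEM cells, uninfected and HIV-1-infected, received five drug concentrations, and growth was read by soluble formazan assay. Compounds giving at least 50% protection were retested; reproducible 100% protection defined confirmed active.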

Calls of active or inactive are those of the source.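 How the source made its calls: active means compounds giving half or more protection of infected cells from virus-caused growth loss, again on retest; inactive means the rest.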

By EC50 is commonly meant the concentration needed to bring the measured effect to its halfway point. As a reminder, the IC50 is the concentration that inhibits the measured activity by half. The low end stands for greater potency in that assay, the high end for weaker potency in that assay.

With `C/C(=N/OC(=O)N(C)C)c1ccc(Cl)cc1Cl`, the EC50 is more than 200 µM and the IC50 worked out at 105 µM.
Regarding `CCC1C(C)c2c([nH]c3ccccc23)C2C(=O)N(c3ccccc3)C(=O)C21` (configuration not stated), the result was inactive.
For the compound `C=C1CC(C#N)(C#N)[C@H]2C3CCCC3C[C@@H]12` (some centres not stated) (tested in a mixture with another compound), the EC50 was more than 200 µM and the IC50 was determined as 33.1 µM.
In the case of `COc1ccc(/C=C/CO)cc1OC`, the result was inactive.
In the case of `Cc1ccc(NC(=O)CSc2nnc(Cc3ccccc3)o2)c(C)c1`, the EC50 is more than 141 µM and the IC50 was found to be 135 µM.
With `CC1(C)[C@@H]2C[C@H]1C(Cc1ccccc1C[C@H]1c3cc(-c4ccccn4)ncc3[C@H]3C[C@@H]1C3(C)C)c1cc(-c3ccccn3)ncc12` (some centres not stated), the EC50 was more than 200 µM and the IC50 came out at 0.316 µM.
The corresponding values for `N#CC(C(=O)CCCC(=O)Nc1ccc(Cl)cc1Cl)c1ccccc1` (configuration not stated) are more than 661 µM and more than 661 µM.
For `Cc1ncc2c(n1)NC(c1ccc([N+](=O)[O-])cc1)NC2` (configuration not stated) the same measures were more than 69.2 µM and more than 69.2 µM.
As for `CCN(CC)CCN1CC(=O)N2Cc3ccccc3CN2C(=O)C1`, the EC50 was more than 200 µM and the half-maximal inhibitory concentration (IC50) was more than 200 µM.
Turning to `Cc1ccc(/C=C2\CCCCCC2=O)cc1`, the EC50 is more than 200 µM and the 50% inhibitory concentration (IC50) is 182 µM.
For the compound `COc1cc(/C=C2\CC/C(=C\c3cc(OC)c(O)c(OC)c3)C2=O)cc(OC)c1O`, the EC50 was more than 200 µM and the IC50 amounted to 1.02 µM.
For `COc1ccccc1N1CCN(Cn2c(=O)oc3cccnc32)CC1` the same measures were more than 200 µM and 60.3 µM.
For `COC(=O)c1ncn(C2CCCCC2)c1O` the same measures were more than 200 µM and more than 200 µM.
For the compound `NC(=O)N/N=C(/Cc1nc2ccc(C(=O)c3ccccc3)cc2[nH]c1=O)C(=O)Nc1ccc(C(F)(F)F)cc1[N+](=O)[O-]`, the outcome was inactive.
Turning to `c1snnc1-c1cnns1`, the EC50 was more than 200 µM and the IC50 is more than 200 µM.
For `CC1=Nc2ccccc2N=C(c2c(O)c3ccc4ccccc4c3oc2=O)C1`, the EC50 was more than 200 µM and the IC50 turned out to be 49 µM.
The corresponding values for `CN(C)c1ccc(/C=C2/NC(=S)NC2=O)cc1` are more than 200 µM and 20 µM.
The corresponding values for `O=c1cc(S(=O)(=O)Cc2ccccc2)[nH]c(=O)[nH]1` are more than 135 µM and more than 135 µM.
For `FC(F)(F)c1ccc2c(c1)N(CCCN1CCNCC1)c1ccccc1S2` the same measures were more than 34.7 µM and 21.4 µM.
Regarding `CC(C)C(C=O)C(O)(C(F)(F)F)C(F)(F)F` (configuration not stated), the EC50 is more than 200 µM and the IC50 was more than 200 µM.
As for `COC(=O)N/N=C(/c1nc2ccc([N+](=O)[O-])cc2[nH]c1=O)C(O)c1ccc(OC)c(OC)c1` (configuration not stated), the EC50 is more than 110 µM and the IC50 is more than 110 µM.
For the compound `COc1ccc(C(=O)O/N=C2\CCCC\C2=C/c2ccccc2)cc1`, the outcome was inactive.
Take `CC(=O)Oc1ccc(-c2oc3c([C@H]4C=C(C)CC(c5ccc(OC(C)=O)cc5OC(C)=O)[C@@H]4C(=O)c4ccc(OC(C)=O)c(CC=C(C)C)c4O)c(OC(C)=O)cc(O)c3c(=O)c2CC=C(C)C)c(OC(C)=O)c1` (some centres not stated): the EC50 is more than 5.13 µM and the concentration for half-maximal inhibition (IC50) was more than 5.13 µM.
Turning to `O=c1[nH]nnc2c1sc1ncccc12`, the EC50 is more than 200 µM and the 50% inhibitory concentration (IC50) was more than 200 µM.
As for `COC(=O)CC1C(COC(C)=O)OC(n2ccc(=O)[nH]c2=O)C1OC(C)=O` (configuration not stated), the EC50 was 0.537 µM and the IC50 was more than 200 µM.
As to `COC1OC(CO)C(NC2=N[C@@H]3[C@H](O2)[C@@H](O)[C@H](O)[C@]3(O)CO)C(O)C1O` (some centres not stated), the EC50 was more than 50.1 µM and the IC50 was more than 50.1 µM.
As to `NC1CCCCCCC1`, the EC50 was more than 200 µM and the IC50 is more than 200 µM.
As for `C=CC1(c2ccc(OC)cc2)OCCCO1`, the EC50 was more than 200 µM and the IC50 was 97.7 µM.

The values are drawn from PubChem BioAssay AID179 (DTP/NCI, 2004).
